Results from paper PMC9007462 (Journal of Medicinal Chemistry, 2022).

Columns and labels:
LNCaP = assay: MTT chemosensitivity assay, LNCaP; type: cell-based, human; conditions: Homo sapiens, LNCaP, 96 h exposure, ± SD, at least three independent experiments
Description: (§1) MTT (3-(4, 5-dimethyl-2-thiazolyl)-2, 5-diphenyl-2H-tetrazolium bromide) assay was used to determine cell viability.[64] Immortalized PCa cells (PC-3, Du-145, and LNCaP) were seeded in 96-well plates and allowed to adhere overnight at 37 °C, 5% CO2, and 100% humidity. […] After 96 h of exposure, 200 μL of MTT (Sigma) solution (0.5 mg/mL) was added to each well and incubated at 37 °C for 4 h. The formazan crystals were dissolved in DMSO (Sigma), and the absorbance was read using a microplate reader (Multiskan EX; Thermo Fisher Scientific) at 540 nm. Data analysis was performed using Microsoft Excel 2013 and GraphPad Prism software.

DU145 = assay: MTT chemosensitivity assay, DU145; type: cell-based, human; conditions: Homo sapiens, DU-145, 96 h exposure, ± SD, at least three independent experiments
Description: as §1

Human ALDH1A3 [1] = target: T1, Human ALDH1A3 (Homo sapiens, UniProt P47895); assay: ALDH1A3 inhibition, IC50, Ki and type of inhibition; type: biochemical; conditions: 6 μM hexanal as substrate; mean ± SE
T1 construct: made in house
T1 sequence (P47895 1-512): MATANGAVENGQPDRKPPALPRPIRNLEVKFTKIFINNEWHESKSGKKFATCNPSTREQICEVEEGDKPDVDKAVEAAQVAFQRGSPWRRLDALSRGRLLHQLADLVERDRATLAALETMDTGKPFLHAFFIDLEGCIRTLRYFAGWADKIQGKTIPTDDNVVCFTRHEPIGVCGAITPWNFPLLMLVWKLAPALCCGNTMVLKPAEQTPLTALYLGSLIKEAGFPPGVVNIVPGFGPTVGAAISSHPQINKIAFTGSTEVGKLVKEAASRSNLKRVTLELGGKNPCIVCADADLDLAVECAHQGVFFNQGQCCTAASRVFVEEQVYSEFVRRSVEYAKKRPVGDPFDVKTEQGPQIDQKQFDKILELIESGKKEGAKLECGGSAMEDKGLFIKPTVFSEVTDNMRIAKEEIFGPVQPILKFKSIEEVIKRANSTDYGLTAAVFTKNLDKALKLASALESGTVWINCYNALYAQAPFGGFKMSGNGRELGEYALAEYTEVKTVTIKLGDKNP
Description: Human ALDH1A1, ALDH1A3, and ALDH3A1 were cloned and recombinantly expressed from the pET-30 Xa/LIC vector. Protein purification was achieved by affinity chromatography on a nickel-charged chelating Sepharose Fast Flow 5-mL column (His Trap column, Cytiva), which specifically binds the protein due to its N-terminal (His)6 tag, using an ÄKTA FPLC system (Cytiva), as previously described.[55] Enzymes including the His tag were stored at −80 °C in 20 mM Tris/HCl and 0.5 M NaCl, pH 8.0, until use. Reaction buffers were as follows: ALDH1A1 was assayed in 50 mM HEPES, 0.5 mM EDTA, and 0.5 mM DTT, pH 8.0; […] Activity under standard conditions was measured fluorimetrically at 25 °C using a Cary Eclipse (Varian) fluorimeter to follow the purification procedure and to check the enzyme concentration before each kinetic experiment. […] In order to determine the IC50 values, reaction rates were determined at various concentrations of inhibitor at a fixed concentration of substrate. […] Values are expressed as the mean ± SE. […] The data of enzymatic activities at different inhibitor concentrations were fitted to the Michaelis–Menten equation to determine the values of Km and Vmax. Next, results were fitted to the equations for competitive, given by [drawing 3]; noncompetitive, given by [drawing 4]; uncompetitive, given by [drawing 5]; and mixed, given by [drawing 6] .[56] The type of inhibition was selected based on the lowest error value. Parameters were expressed as the mean ± SE.

Human ALDH1A1 = target: T2, Human ALDH1A1 (Homo sapiens, UniProt P00352); assay: DEAB analogues as substrates of ALDH1A1; type: biochemical; conditions: 10 μM compound as substrate, relative to activity with 10 μM hexanal (Figure S2)
T2 construct: made in house
T2 sequence (P00352 1-501): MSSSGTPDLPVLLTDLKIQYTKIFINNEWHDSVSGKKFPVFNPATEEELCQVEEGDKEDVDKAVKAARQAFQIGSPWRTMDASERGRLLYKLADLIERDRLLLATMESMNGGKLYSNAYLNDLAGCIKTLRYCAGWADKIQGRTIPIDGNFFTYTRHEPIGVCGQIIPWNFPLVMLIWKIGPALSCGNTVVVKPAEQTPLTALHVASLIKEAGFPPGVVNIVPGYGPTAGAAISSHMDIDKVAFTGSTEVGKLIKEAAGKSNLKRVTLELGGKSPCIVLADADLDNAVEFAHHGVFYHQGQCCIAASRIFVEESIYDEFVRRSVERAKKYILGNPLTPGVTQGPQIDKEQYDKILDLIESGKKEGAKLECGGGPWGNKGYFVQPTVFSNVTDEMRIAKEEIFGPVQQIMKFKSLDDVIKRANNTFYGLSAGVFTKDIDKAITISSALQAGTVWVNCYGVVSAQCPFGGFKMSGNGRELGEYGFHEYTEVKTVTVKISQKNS
Description: (§2) Human ALDH1A1, ALDH1A3, and ALDH3A1 were cloned and recombinantly expressed from the pET-30 Xa/LIC vector. Protein purification was achieved by affinity chromatography on a nickel-charged chelating Sepharose Fast Flow 5-mL column (His Trap column, Cytiva), which specifically binds the protein due to its N-terminal (His)6 tag, using an ÄKTA FPLC system (Cytiva), as previously described.[55] Enzymes including the His tag were stored at −80 °C in 20 mM Tris/HCl and 0.5 M NaCl, pH 8.0, until use. Reaction buffers were as follows: ALDH1A1 was assayed in 50 mM HEPES, 0.5 mM EDTA, and 0.5 mM DTT, pH 8.0; ALDH1A3 was assayed in 50 mM HEPES, 30 mM MgCl2, and 5 mM DTT, pH 8.0; and ALDH3A1 was assayed in 50 mM Tris–HCl and 5 mM DTT, pH 8.0. Activity under standard conditions was measured fluorimetrically at 25 °C using a Cary Eclipse (Varian) fluorimeter to follow the purification procedure and to check the enzyme concentration before each kinetic experiment. The fluorescence of NADH was characterized at 460 nm with excitation at 340 nm, and 5 μM NAD(P)H was added as an internal standard to obtain the absolute reaction rates.[55] Standard activity was measured at saturating concentrations of substrate using 30 μM hexanal (ALDH1A1), 250 μM hexanal (ALDH1A3), or 250 μM 4-NBA (ALDH3A1). NAD^+ was 500 μM for ALDH1A1 and ALDH1A3, and NADP^+ was 1 mM for ALDH3A1.
According to their structure with a carbonyl group, compounds were tested for their substrate properties against ALDH1A1, ALDH1A3, and ALDH3A1. […] Results are expressed as the percentage of activity at 10 μM versus the activity at 10 μM of their standard substrate (hexanal or 4-NBA). Values are expressed as the mean ± SE.

PC3 = assay: MTT chemosensitivity assay, PC3; type: cell-based, human; conditions: Homo sapiens, PC-3, 96 h exposure, ± SD, at least three independent experiments
Description: as §1

Human ALDH3A1 [2] = target: T3, Human ALDH3A1 (Homo sapiens, UniProt P30838); assay: ALDH3A1 inhibition, IC50, Ki and type of inhibition; type: biochemical; conditions: measured at a saturating substrate concentration (4-NBA); mean ± SE
T3 construct: made in house
T3 sequence (P30838 1-453): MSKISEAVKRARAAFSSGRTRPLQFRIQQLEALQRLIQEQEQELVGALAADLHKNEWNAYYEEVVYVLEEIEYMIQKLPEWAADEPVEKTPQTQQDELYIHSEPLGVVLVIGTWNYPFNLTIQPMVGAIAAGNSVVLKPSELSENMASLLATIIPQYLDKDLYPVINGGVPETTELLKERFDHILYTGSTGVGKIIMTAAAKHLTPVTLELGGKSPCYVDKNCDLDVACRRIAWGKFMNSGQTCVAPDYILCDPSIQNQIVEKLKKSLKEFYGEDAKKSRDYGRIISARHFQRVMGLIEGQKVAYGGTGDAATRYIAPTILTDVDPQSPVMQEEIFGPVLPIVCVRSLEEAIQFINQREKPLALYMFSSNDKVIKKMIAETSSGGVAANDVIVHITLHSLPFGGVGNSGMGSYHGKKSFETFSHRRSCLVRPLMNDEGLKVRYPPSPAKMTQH

Human ALDH1A3 [3] = target: T1, Human ALDH1A3; assay: Inhibition screening, single point at 10 μM, ALDH1A3; type: biochemical; conditions: 10 μM compound; hexanal as substrate (Figure S1)
Description: as §2, with “Reaction buffers were as follows: ALDH1A1 was assayed in 50 mM HEPES, 0.5 mM EDTA, and 0.5 mM DTT, pH 8.0; ALDH1A3 was assayed in 50 mM HEPES, 30 mM MgCl2, and 5 mM DTT, pH 8.0; and ALDH3A1 was assayed in 50 mM Tris–HCl and 5 mM DTT, pH 8.0.” left out, “NAD^+ was 500 μM for ALDH1A1 and ALDH1A3, and NADP^+ was 1 mM for ALDH3A1.” left out
All compounds tested were dissolved in DMSO and assayed at a final concentration of 1% (v/v) DMSO. […] Alternatively, the enzymatic activity was measured in a Varian Cary 400 UV–vis spectrophotometer, by monitoring the increase in the absorbance of NAD(P)H at 340 nm (ε = 6.22 mM^–1·cm^–1) or in a Cary Eclipse Varian fluorimeter, as described above. […]

[4] = test system: PC3, DU145 and LNCaP prostate cancer cell lines; assay: MTT chemosensitivity assay, panel of three prostate cancer cell lines; type: cell-based; conditions: Homo sapiens, 96 h exposure, read-out: IC50 against three prostate cancer cell lines
Description: as §1

Human ALDH3A1 [5] = target: T3, Human ALDH3A1; assay: ALDH3A1 inhibition, IC50, Ki and type of inhibition; type: biochemical; conditions: 31 μM 4-NBA as substrate; mean ± SE
Description: as §2
In order to determine the IC50 values, reaction rates were determined at various concentrations of inhibitor at a fixed concentration of substrate. As substrates for ALDH1A1, ALDH1A3, and ALDH3A1, 5 μM hexanal, 6 μM hexanal, and 31 μM 4-NBA, respectively, were used. The IC50 values were calculated by nonlinear fitting of the obtained data to a sigmoidal plot using GraFit 5.0 (Erithacus software), with the following 4-parameter equation [drawing 2] , where y is the specific activity, x is the inhibitor concentration, background is the minimum y value, range is the fitted uninhibited value minus the background, and s is the slope factor. Values are expressed as the mean ± SE.
Activity assays to determine the type of inhibition and Ki value were performed using various substrate and inhibitor concentrations maintaining the same conditions as for the IC50 experiments and using GraFit 5.0 for data processing. The data of enzymatic activities at different inhibitor concentrations were fitted to the Michaelis–Menten equation to determine the values of Km and Vmax. Next, results were fitted to the equations for competitive, given by [drawing 3]; noncompetitive, given by [drawing 4]; uncompetitive, given by [drawing 5]; and mixed, given by [drawing 6] .[56] The type of inhibition was selected based on the lowest error value. Parameters were expressed as the mean ± SE.

[6] = test system: patient-derived primary prostate tumor epithelial cells; conditions: other primary samples analyzed in the authors' laboratory; cited from earlier work

Row | SMILES | IC50 (LNCaP) [µM] | IC50 (DU145) [µM] | IC50 (Human ALDH1A3 [1]) [µM] | IC50 (PC3) [µM] | remaining ALDH1A3 activity (Human ALDH1A3 [3]) [%] | further results
1 | CCCN(CCC)c1ccc(C=O)cc1Cl [Compound 7, 3-Chloro-4-(dipropylamino)benzaldehyde] | 10 ± 3 | 90 ± 27 | 0.55 ± 0.05 | 77 ± 17 | – | ALDH1A1 substrate activity (Human ALDH1A1): 17.9%; IC50 (Human ALDH3A1 [2]): 13.7 ± 0.3 µM
2 | Cc1cc(C=O)ccc1N1CCN(C)CC1 [Compound 24, 3-Methyl-4-(4-methylpiperazin-1-yl)benzaldehyde] | – | – | – | – | 45 | –
3 | Cc1cc(C=O)ccc1N1CCOCC1 [Compound 27, 3-Methyl-4-morpholinobenzaldehyde] | – | – | – | – | 10 | –
4 | CCN(CC)c1ccc(C=O)cc1 [DEAB, 4-(Diethylamino)benzaldehyde, reference compound] | > 200 | > 200 | 10.4 ± 1 | > 200 | – | IC50 [4]: > 200 µM; IC50 (Human ALDH3A1 [5]): 5.67 ± 0.66 µM
5 | CC(=O)O[C@@]12CO[C@@H]1C[C@H](O)[C@@]1(C)C(=O)[C@H](O)C3=C(C)[C@@H](OC(=O)[C@H](O)[C@@H](NC(=O)OC(C)(C)C)c4ccccc4)C[C@@](O)([C@@H](OC(=O)c4ccccc4)[C@H]21)C3(C)C [docetaxel] | – | – | – | – | – | IC50 [6]: 1 nM
